Results as given in article PMC5218480 (PLoS ONE, 2017).

Tested on: MV-4-11 cells
Test: Gene expression microarray analysis (Affymetrix PrimeView) and GSEA
Assay type: cell-based, human
Set-up: RFU PODN (11730768_x_at) / Fold change /veh PODN (11730768_x_at) / RFU LINC00158 (11744669_a_at) / Fold change /veh LINC00158 (11744669_a_at) / RFU DUSP10 (11751237_a_at) / Fold change /veh DUSP10 (11751237_a_at) / RFU ID3 (11757404_x_at) / Fold change /veh ID3 (11757404_x_at) / RFU PLEKHG5 (11737974_s_at) / Fold change /veh PLEKHG5 (11737974_s_at) / RFU LRRC4B (11730491_at) / Fold change /veh LRRC4B (11730491_at) / RFU GIMAP4 (11747438_a_at) / Fold change /veh GIMAP4 (11747438_a_at) / RFU KRT8 (11758183_x_at) / Fold change /veh KRT8 (11758183_x_at) / RFU CNN1 (11734310_a_at) / Fold change /veh CNN1 (11734310_a_at) / RFU VPS37D (11726825_at) / Fold change /veh VPS37D (11726825_at) / RFU C10orf10 (11716522_x_at) / Fold change /veh C10orf10 (11716522_x_at) / RFU KIR2DL2 /// KIR2DL4 /// KIR2DL5A /// KIR2DL5B /// KIR2DS1 /// KIR2DS2 /// KIR2DS3 /// KIR2DS4 /// KIR3DL3 /// KIR3DL3 /// KIR3DS1 (11738374_at) / Fold change /veh KIR2DL2 /// KIR2DL4 /// KIR2DL5A /// KIR2DL5B /// KIR2DS1 /// KIR2DS2 /// KIR2DS3 /// KIR2DS4 /// KIR3DL3 /// KIR3DL3 /// KIR3DS1 (11738374_at) / RFU C1QL1 (11718748_at) / Fold change /veh C1QL1 (11718748_at) / RFU TMPRSS4 (11747572_a_at) / Fold change /veh TMPRSS4 (11747572_a_at) / RFU HAMP (11756126_x_at) / Fold change /veh HAMP (11756126_x_at) / RFU RNFT2 (11725882_a_at) / Fold change /veh RNFT2 (11725882_a_at) / RFU NR4A2 (11747474_a_at) / Fold change /veh NR4A2 (11747474_a_at) / RFU ABCC12 (11746883_a_at) / Fold change /veh ABCC12 (11746883_a_at) / RFU TMEM136 (11760407_x_at) / Fold change /veh TMEM136 (11760407_x_at) / RFU CLDN22 /// WWC2 (11732394_at) / Fold change /veh CLDN22 /// WWC2 (11732394_at) / RFU HLA-DPB1 (11760878_x_at) / Fold change /veh HLA-DPB1 (11760878_x_at) / RFU SPINT1 (11716480_a_at) / Fold change /veh SPINT1 (11716480_a_at) / RFU GAP43 (11754022_s_at) / Fold change /veh GAP43 (11754022_s_at) / RFU A4GNT (11735810_at) / Fold change /veh A4GNT (11735810_at) / RFU PRB3 (11715151_x_at) / Fold change /veh PRB3 (11715151_x_at) / RFU TUBB4B (11761932_at) / Fold change /veh TUBB4B (11761932_at) / RFU CAPN14 (11732068_a_at) / Fold change /veh CAPN14 (11732068_a_at) / RFU TMCC2 (11721928_a_at) / Fold change /veh TMCC2 (11721928_a_at) / RFU IRGQ (11745062_a_at) / Fold change /veh IRGQ (11745062_a_at) / RFU FAM174B (11720279_a_at) / Fold change /veh FAM174B (11720279_a_at) / RFU TMPRSS4 (11748680_a_at) / Fold change /veh TMPRSS4 (11748680_a_at) / RFU FAM212B (11763350_a_at) / Fold change /veh FAM212B (11763350_a_at) / RFU PLEKHG5 (11743358_a_at) / Fold change /veh PLEKHG5 (11743358_a_at) / RFU ZSCAN30 (11745921_a_at) / Fold change /veh ZSCAN30 (11745921_a_at) / RFU CMKLR1 (11741424_a_at) / Fold change /veh CMKLR1 (11741424_a_at) / RFU LOC101060620 /// MAPK8IP1 (11723275_at) / Fold change /veh LOC101060620 /// MAPK8IP1 (11723275_at) / RFU SPTSSB (11747773_x_at) / Fold change /veh SPTSSB (11747773_x_at) / RFU PRSS12 (11739890_at) / Fold change /veh PRSS12 (11739890_at) / RFU BIN1 (11741810_x_at) / Fold change /veh BIN1 (11741810_x_at) / RFU WNT11 (11732464_a_at) / Fold change /veh WNT11 (11732464_a_at) / RFU C10orf10 (11716521_a_at) / Fold change /veh C10orf10 (11716521_a_at) / RFU C5orf56 (11738089_at) / Fold change /veh C5orf56 (11738089_at) / RFU CYB561 (11721691_x_at) / Fold change /veh CYB561 (11721691_x_at) / RFU ANKRD19P (11752326_a_at) / Fold change /veh ANKRD19P (11752326_a_at) / RFU OR2T12 /// OR2T33 /// OR2T8 (11738714_s_at) / Fold change /veh OR2T12 /// OR2T33 /// OR2T8 (11738714_s_at) / RFU VCAN (11748164_a_at) / Fold change /veh VCAN (11748164_a_at) / RFU JSRP1 (11732532_at) / Fold change /veh JSRP1 (11732532_at) / RFU KRTAP10-11 (11738290_x_at) / Fold change /veh KRTAP10-11 (11738290_x_at) / RFU MYO3A (11730013_a_at) / Fold change /veh MYO3A (11730013_a_at) / RFU EBF3 (11725865_a_at) / Fold change /veh EBF3 (11725865_a_at) / RFU CAMK2N1 (11719241_x_at) / Fold change /veh CAMK2N1 (11719241_x_at) / RFU C5orf56 (11738088_a_at) / Fold change /veh C5orf56 (11738088_a_at) / RFU OLFML3 (11715873_a_at) / Fold change /veh OLFML3 (11715873_a_at) / RFU LOC100653217 /// NTM (11731650_a_at) / Fold change /veh LOC100653217 /// NTM (11731650_a_at) / RFU MAPK11 (11762145_a_at) / Fold change /veh MAPK11 (11762145_a_at) / RFU FIZ1 (11724087_x_at) / Fold change /veh FIZ1 (11724087_x_at) / RFU OASL (11726364_x_at) / Fold change /veh OASL (11726364_x_at) / RFU SOX15 (11748057_x_at) / Fold change /veh SOX15 (11748057_x_at) / RFU CD79A (11719716_a_at) / Fold change /veh CD79A (11719716_a_at) / RFU HIST1H1D (11736915_at) / Fold change /veh HIST1H1D (11736915_at) / RFU CASKIN2 (11723855_a_at) / Fold change /veh CASKIN2 (11723855_a_at) / RFU LOC730098 (11760151_x_at) / Fold change /veh LOC730098 (11760151_x_at) / RFU OR4N2 (11742367_at) / Fold change /veh OR4N2 (11742367_at) / RFU PRRT2 (11749266_a_at) / Fold change /veh PRRT2 (11749266_a_at) / RFU SNX32 (11753110_a_at) / Fold change /veh SNX32 (11753110_a_at) / RFU CDHR5 (11726645_a_at) / Fold change /veh CDHR5 (11726645_a_at) / RFU RCAN1 (11760418_a_at) / Fold change /veh RCAN1 (11760418_a_at) / RFU FAM167A (11723789_a_at) / Fold change /veh FAM167A (11723789_a_at) / RFU FAM26E (11764081_at) / Fold change /veh FAM26E (11764081_at) / RFU ISYNA1 (11749810_s_at) / Fold change /veh ISYNA1 (11749810_s_at) / RFU ACY1 (11761880_at) / Fold change /veh ACY1 (11761880_at) / RFU 11764098_at / Fold change /veh 11764098_at / RFU SAMD14 (11745864_x_at) / Fold change /veh SAMD14 (11745864_x_at) / RFU NPB (11741838_a_at) / Fold change /veh NPB (11741838_a_at) / RFU TMPRSS6 (11731388_a_at) / Fold change /veh TMPRSS6 (11731388_a_at) / RFU KRTAP10-2 (11738614_at) / Fold change /veh KRTAP10-2 (11738614_at) / RFU ARHGAP8 /// PRR5-ARHGAP8 (11727945_x_at) / Fold change /veh ARHGAP8 /// PRR5-ARHGAP8 (11727945_x_at) / RFU KRTAP5-7 /// NADSYN1 (11734609_at) / Fold change /veh KRTAP5-7 /// NADSYN1 (11734609_at) / RFU RASL12 (11751679_a_at) / Fold change /veh RASL12 (11751679_a_at) / RFU CDKN2B (11736163_a_at) / Fold change /veh CDKN2B (11736163_a_at) / RFU PRF1 (11729649_at) / Fold change /veh PRF1 (11729649_at) / RFU, ZNF638 /// ZNF638-IT1 / Fold change vs veh, ZNF638 /// ZNF638-IT1 / RFU, PANK3 / Fold change vs veh, PANK3 / RFU, SH3YL1 / Fold change vs veh, SH3YL1 / RFU, ZEB2 / Fold change vs veh, ZEB2 / RFU, NRIP1 / Fold change vs veh, NRIP1 / RFU, PTTG1IP / Fold change vs veh, PTTG1IP / RFU, CAPN2 / Fold change vs veh, CAPN2 / RFU, MED14 / Fold change vs veh, MED14 / RFU, SNORA58 / Fold change vs veh, SNORA58 / RFU, C1orf63 / Fold change vs veh, C1orf63 / RFU, LRRFIP1 / Fold change vs veh, LRRFIP1 / RFU, NDUFAF7 / Fold change vs veh, NDUFAF7 / RFU, SLC12A2 / Fold change vs veh, SLC12A2 / RFU, IBTK / Fold change vs veh, IBTK / RFU, ESF1 / Fold change vs veh, ESF1 / Fold change vs veh, TMEM50B / RFU, TAOK1 / Fold change vs veh, TAOK1 / RFU, ACBD3 / Fold change vs veh, ACBD3 / RFU, TMA16 / Fold change vs veh, TMA16 / RFU, RWDD3 / Fold change vs veh, RWDD3 / RFU, BCAT1 / Fold change vs veh, BCAT1 / RFU, EDEM3 / Fold change vs veh, EDEM3 / RFU, TMEM33 / Fold change vs veh, TMEM33 / RFU, WDR75 / Fold change vs veh, WDR75 / RFU, AHCTF1 / Fold change vs veh, AHCTF1 / RFU, TFRC / Fold change vs veh, TFRC / RFU, ZDHHC17 / Fold change vs veh, ZDHHC17 / RFU, NOM1 / Fold change vs veh, NOM1 / RFU, ARL8B / Fold change vs veh, ARL8B / RFU, ZBTB11 / Fold change vs veh, ZBTB11 / RFU, TAMM41 / Fold change vs veh, TAMM41 / RFU, KIAA1704 /// LOC100996395 / Fold change vs veh, KIAA1704 /// LOC100996395 / RFU, ING1 / Fold change vs veh, ING1 / RFU, TRMT61B / Fold change vs veh, TRMT61B / RFU, FUBP3 / Fold change vs veh, FUBP3 / RFU, TP53 / Fold change vs veh, TP53 / RFU, TNKS2 / Fold change vs veh, TNKS2 / RFU, ZFP14 / Fold change vs veh, ZFP14 / RFU, ACTR2 / Fold change vs veh, ACTR2 / RFU, PPP3R1 / Fold change vs veh, PPP3R1 / RFU, PIK3R1 / Fold change vs veh, PIK3R1 / RFU, HNRNPA1 / Fold change vs veh, HNRNPA1 / RFU, RNF170 / Fold change vs veh, RNF170 / RFU, ZNF28 / Fold change vs veh, ZNF28 / RFU, RNGTT / Fold change vs veh, RNGTT / RFU, OGT / Fold change vs veh, OGT / RFU, BRD1 / Fold change vs veh, BRD1 / RFU, MARS / Fold change vs veh, MARS / RFU, ZNF655 / Fold change vs veh, ZNF655 / RFU, FAHD1 / Fold change vs veh, FAHD1 / RFU, BDP1 / Fold change vs veh, BDP1 / RFU, LRRCC1 / Fold change vs veh, LRRCC1 / RFU, ARID1A / Fold change vs veh, ARID1A / RFU, ZNF146 / Fold change vs veh, ZNF146 / RFU, ZNF330 / Fold change vs veh, ZNF330 / RFU, GPN3 / Fold change vs veh, GPN3 / RFU, C9orf123 / Fold change vs veh, C9orf123 / RFU, N4BP2L2 / Fold change vs veh, N4BP2L2 / RFU, ARFIP1 / Fold change vs veh, ARFIP1 / RFU, FAM179B / Fold change vs veh, FAM179B / RFU, BCL10 / Fold change vs veh, BCL10 / RFU, UHRF1BP1L / Fold change vs veh, UHRF1BP1L / RFU, BET1 / Fold change vs veh, BET1 / RFU, CNOT2 / Fold change vs veh, CNOT2 / RFU, ZNF268 / Fold change vs veh, ZNF268 / Fold change vs veh, ZNF507 / RFU, DGCR2 / Fold change vs veh, DGCR2 / RFU, WDSUB1 / Fold change vs veh, WDSUB1 / Fold change vs veh, HSP90B1 /// MIR3652 / RFU, ADSS / Fold change vs veh, ADSS / RFU, GK / Fold change vs veh, GK / RFU, ZNF148 / Fold change vs veh, ZNF148 / RFU, TAF9 / Fold change vs veh, TAF9 / RFU, SLC1A5 / Fold change vs veh, SLC1A5 / RFU, SLMO2 / Fold change vs veh, SLMO2 / RFU, ABCC4 / Fold change vs veh, ABCC4 / RFU, LOC101060439 /// RAP1B / Fold change vs veh, LOC101060439 /// RAP1B / RFU, RFX7 / Fold change vs veh, RFX7 / RFU, GTPBP10 / Fold change vs veh, GTPBP10 / RFU, CNEP1R1 / Fold change vs veh, CNEP1R1 / RFU, BIVM-ERCC5 /// ERCC5 / Fold change vs veh, BIVM-ERCC5 /// ERCC5 / RFU, ILF3 / Fold change vs veh, ILF3 / RFU 11762660_at / Fold change /veh 11762660_at / RFU VCAN (11757783_s_at) / Fold change /veh VCAN (11757783_s_at) / RFU DDX43 (11728927_at) / Fold change /veh DDX43 (11728927_at) / RFU KRT8 (11758188_x_at) / Fold change /veh KRT8 (11758188_x_at) / RFU NKD1 (11759106_at) / Fold change /veh NKD1 (11759106_at) / RFU SRD5A1 (11742802_a_at) / Fold change /veh SRD5A1 (11742802_a_at) / RFU TPSAB1 /// TPSB2 (11721975_s_at) / Fold change /veh TPSAB1 /// TPSB2 (11721975_s_at) / RFU GSTM3 (11746129_a_at) / Fold change /veh GSTM3 (11746129_a_at) / RFU IL23R (11737362_x_at) / Fold change /veh IL23R (11737362_x_at) / RFU TMEM51 (11727254_a_at) / Fold change /veh TMEM51 (11727254_a_at) / RFU PIWIL2 (11732686_x_at) / Fold change /veh PIWIL2 (11732686_x_at) / RFU ORM1 (11744905_x_at) / Fold change /veh ORM1 (11744905_x_at) / RFU CCDC152 (11743942_at) / Fold change /veh CCDC152 (11743942_at) / RFU ECM1 (11717891_a_at) / Fold change /veh ECM1 (11717891_a_at) / RFU IL23R (11748794_a_at) / Fold change /veh IL23R (11748794_a_at) / RFU TNFAIP8L3 (11732012_x_at) / Fold change /veh TNFAIP8L3 (11732012_x_at) / RFU MBOAT4 (11741988_at) / Fold change /veh MBOAT4 (11741988_at) / RFU 11764193_at / Fold change /veh 11764193_at / RFU TMEM53 (11763286_at) / Fold change /veh TMEM53 (11763286_at) / RFU MAGEB2 (11727129_at) / Fold change /veh MAGEB2 (11727129_at) / RFU TMEM200A (11744735_a_at) / Fold change /veh TMEM200A (11744735_a_at) / RFU CCDC152 (11751479_a_at) / Fold change /veh CCDC152 (11751479_a_at) / RFU FAM211A (11726209_a_at) / Fold change /veh FAM211A (11726209_a_at) / RFU RGS16 (11746705_a_at) / Fold change /veh RGS16 (11746705_a_at) / RFU VCAN (11755009_s_at) / Fold change /veh VCAN (11755009_s_at) / RFU RHOB (11743442_s_at) / Fold change /veh RHOB (11743442_s_at) / RFU RGS16 (11720943_a_at) / Fold change /veh RGS16 (11720943_a_at) / RFU RGS16 (11720944_at) / Fold change /veh RGS16 (11720944_at) / RFU, VPS4B / Fold change vs veh, VPS4B / RFU, CREB1 / Fold change vs veh, CREB1 / RFU, DNAJC13 / Fold change vs veh, DNAJC13 / RFU, GNAQ / Fold change vs veh, GNAQ / RFU, CDK5R1 / Fold change vs veh, CDK5R1 / RFU, ZRANB3 / Fold change vs veh, ZRANB3 / RFU, CUL4A / Fold change vs veh, CUL4A / RFU, CCNY / Fold change vs veh, CCNY / RFU, UFL1 / Fold change vs veh, UFL1 / RFU, COG3 / Fold change vs veh, COG3 / RFU, DIAPH2 / Fold change vs veh, DIAPH2 / RFU, SKA2 / Fold change vs veh, SKA2 / RFU, AFF3 / Fold change vs veh, AFF3 / RFU, LMF1 / Fold change vs veh, LMF1 / RFU, IPO11 / Fold change vs veh, IPO11 / RFU, DFFB / Fold change vs veh, DFFB / RFU, FOXP1 / Fold change vs veh, FOXP1 / RFU, CARD8 / Fold change vs veh, CARD8 / RFU, STRN3 / Fold change vs veh, STRN3 / RFU, ADK / Fold change vs veh, ADK / RFU, RASSF2 / Fold change vs veh, RASSF2 / RFU, WIPF1 / Fold change vs veh, WIPF1 / RFU, LARP1B / Fold change vs veh, LARP1B / RFU, RASA1 / Fold change vs veh, RASA1 / RFU, RB1 / Fold change vs veh, RB1 / RFU, PPFIA1 / Fold change vs veh, PPFIA1 / RFU, MAT2A / Fold change vs veh, MAT2A / RFU, CCT5 / Fold change vs veh, CCT5 / RFU, WDR92 / Fold change vs veh, WDR92 / RFU, CUX1 / Fold change vs veh, CUX1 / RFU, TTC7A / Fold change vs veh, TTC7A / RFU, TMEM135 / Fold change vs veh, TMEM135 / RFU, DEPTOR / Fold change vs veh, DEPTOR / RFU, CPM / Fold change vs veh, CPM / RFU, DNAJB6 / Fold change vs veh, DNAJB6 / RFU, CACNA2D3 / Fold change vs veh, CACNA2D3 / RFU, DTX4 / Fold change vs veh, DTX4 / RFU, TFCP2 / Fold change vs veh, TFCP2 / RFU, GMCL1 /// GMCL1P1 / Fold change vs veh, GMCL1 /// GMCL1P1 / RFU, AEBP2 / Fold change vs veh, AEBP2 / RFU, SNHG1 /// SNORD22 /// SNORD25 /// SNORD26 /// SNORD27 /// SNORD28 /// SNORD29 /// SNORD31 / Fold change vs veh, SNHG1 /// SNORD22 /// SNORD25 /// SNORD26 /// SNORD27 /// SNORD28 /// SNORD29 /// SNORD31 / Fold change (Aza/veh), C12orf56 (ProbeSet 11735607_a_at) / Fold change (ACY-1035/veh), C12orf56 (ProbeSet 11735607_a_at) / Fold change (Aza/veh), FGFR1OP (ProbeSet 11751329_s_at) / Fold change (ACY-1035/veh), FGFR1OP (ProbeSet 11751329_s_at) / Fold change (Aza/veh), VPS36 (ProbeSet 11739960_a_at) / Fold change (ACY-1035/veh), VPS36 (ProbeSet 11739960_a_at) / RFU SYPL1 (11715823_x_at) / Fold change /veh SYPL1 (11715823_x_at) / RFU IGFBP7 (11715501_s_at) / Fold change /veh IGFBP7 (11715501_s_at) / RFU REEP3 (11722064_at) / Fold change /veh REEP3 (11722064_at) / RFU IGLL1 (11728026_x_at) / Fold change /veh IGLL1 (11728026_x_at): dose or concentration left out as unconfirmed
Settings: ProbeSet 11739696_s_at; LIST D

In the case of `Nc1ncn([C@@H]2O[C@H](CO)[C@@H](O)[C@H]2O)c(=O)n1` [azacitidine], the “RFU, AFF3” value is reported as 345.70 RFU.
